According to patent US9173938B2, “Combination of a purine-based CDK inhibitor with a tyrosine kinase inhibitor and use thereof in the treatment of proliferative disorders” (Cyclacel Limited, priority 2007, dated 2015):

Key:
EGFR = conditions: H358 cells, 72 h, western blot
phospho-ERK = assay: Western blot of H358 cell lysates; format: cell-based; conditions: H358 cells, 72 h
H358 cells [1] = assay: Cell growth / drug combination analysis (alamar blue, Calcusyn); format: cell-based; conditions: Homo sapiens, NCI-H358
A549 cells = assay: Cell growth (alamar blue); format: cell-based; conditions: Homo sapiens
H460 cells = assay: Cell growth (alamar blue); format: cell-based; conditions: Homo sapiens, NCI-H460
phospho-Tyr1068 EGFR = conditions: H358 cells, 72 h, western blot
cyclin D1 [2] = assay: Western blot of H358 cell lysates; format: cell-based; conditions: H358 cells, 72 h
cleaved PARP = assay: Western blot for cleaved PARP (apoptosis marker) in H358 cells; format: cell-based; conditions: 72 h, range of concentrations
H292 cells = assay: Drug combination analysis (Alamar blue, Calcusyn); conditions: 72 hours
H292 xenograft = H292 xenograft model; format: in vivo, nude mice; conditions: seliciclib 50 mg bid, [1] 40 mg bid days 1-5 and 11-15; erlotinib 100 mg qd po, 50 mg from day 11
H358 xenograft = conditions: day 49, erlotinib 100 mg/kg po daily, 28 days; for mean tumour volume: seliciclib 50 mg/kg ip twice daily 5 days on/2 off
cyclin D1 [3] = assay: Western blot of SkBr3 cell lysates; format: cell-based; conditions: SkBr3 cells, 24 h
H358 cells [4] = assay: Flow cytometry of DNA content (propidium iodide); conditions: 1×IC50, 72 h
Protocol: (B) The DNA content of the cells was analysed by flow cytometry after propidium iodide staining. Sub-G1 cells are those that contain less DNA than normal diploid cells. Results are representative of two independent experiments.
H358 or H1650 cells were seeded in 10 cm plates at approximately 5×10^5 cells/plate and left to settle overnight. […] After 72 h treatment, cells were harvested by trypsinisation, washed twice in PBS and then fixed overnight in 70% (v/v) ethanol at −20° C. Cells were washed twice in PBS containing 1% (w/v) BSA, then incubated with 50 μg/ml propidium iodide and 50 μg/ml ribonuclease A for 20 min at room temperature. Cells were analysed for DNA content by flow cytometry using the CellQuest programme on a Becton Dickinson LSR flow cytometer.

MCF7 cells = assay: Cell growth (alamar blue); format: cell-based
HER2 = assay: Western blot of SkBr3 cell lysates; format: cell-based; conditions: SkBr3 cells, 24 h
SkBr3 cells = assay: Cell growth / drug combination analysis (alamar blue, Calcusyn); format: cell-based; conditions: for Calcusyn combination value at 50% effective dose: in combination with Lapatinib

Structure (SMILES)	Calcusyn combination value at 50% effective dose (H292 cells; in combination with AG1478)	Calcusyn combination value at 50% effective dose (H292 cells; in combination with Erlotinib)	Calcusyn combination value at 50% effective dose (H292 cells; in combination with Gefitinib)	Calcusyn combination value at 50% effective dose (H292 cells; in combination with Lapatinib)	effect on tumour growth (H292 xenograft)	also measured
COc1cc2ncnc(Nc3cccc(Cl)c3)c2cc1OC [AG1478, 4-(3-chloroanilino)-6,7-dimethoxyquinazoline]	–	–	–	–	–	level of the EGFR (EGFR): decreased the level of the EGFR in a dose-dependent manner; ERK phosphorylation (phospho-ERK): stimulated ERK phosphorylation at low concentrations; IC50 (H358 cells [1]): 4 µM; IC50 (A549 cells): 6.6 µM; IC50 (H460 cells): 10.4 µM; EGFR phosphorylation (phospho-Tyr1068 EGFR): dose-dependent decrease; cyclin D1 levels (cyclin D1 [2]): very little effect; PARP cleavage (cleaved PARP): no increase in PARP cleavage
CC[C@H](Nc1nc(NCc2cccnc2)c2ncn(C(C)C)c2n1)C(C)(C)O [[2], (3S)-3-{9-isopropyl-6-[(pyridin-3-ylmethyl)-amino]-9H-purin-2-ylamino}-2-methyl-pentan-2-ol]	0.26	0.62	0.54	0.79	–	–
C#Cc1cccc(Nc2ncnc3cc(OCCOC)c(OCCOC)cc23)c1 [erlotinib]	–	–	–	–	moderately effective	mean tumour volume (H358 xenograft): 444 mm^3; tumour growth inhibition (H358 xenograft; seliciclib 50 mg/kg ip twice daily): 44%
CC[C@@H](Nc1nc(NCc2cccnc2)c2ncn(C(C)C)c2n1)C(C)(C)O [[1], (3R)-3-{9-isopropyl-6-[(pyridin-3-ylmethyl)-amino]-9H-purin-2-ylamino}-2-methyl-pentan-2-ol]	0.42	0.71	0.50	0.69	minimal if any effect on tumour growth	–
CC[C@H](Nc1nc(NCc2cccnc2)c2ncn(C(C)C)c2n1)[C@@H](C)O [[3], (2R3S)-3-{9-isopropyl-6-[(pyridine-3-ylmethyl)-amino]-9H-purin-2-ylamino}-pentan-2-ol]	0.31	0.68	0.49	0.76	–	–
CC[C@H](CO)Nc1nc(NCc2ccccc2)c2ncn(C(C)C)c2n1 [seliciclib, 2-(1-R-hydroxymethylpropylamino)-6-benzylamino-9-isopropylpurine]	0.38	0.68	0.53	0.57	minimal if any effect on tumour growth	level of the EGFR (EGFR): decreased the level of the EGFR in a dose-dependent manner; ERK phosphorylation (phospho-ERK): no significant effect; cyclin D1 levels (cyclin D1 [3]): significantly decreased cyclin D1 levels in a dose-dependent manner; G2/M phase cells (H358 cells [4]): characteristic increase in G2/M phase cells; IC70 (growth inhibition) (MCF7 cells): 15.4 µM; EGFR phosphorylation (phospho-Tyr1068 EGFR): limited effect; HER2 levels (HER2): decreased HER2 levels in a dose-dependent manner; IC70 (growth inhibition) (SkBr3 cells): 20.4 µM; Calcusyn combination value at 50% effective dose (SkBr3 cells): 0.72; cyclin D1 levels (cyclin D1 [2]): modest decrease; mean tumour volume (H358 xenograft): 717 mm^3; PARP cleavage (cleaved PARP): dose-dependent increase in cleaved PARP
CC[C@H](Nc1nc(NCc2cnc(C)cc2C)c2ncn(C(C)C)c2n1)[C@@H](C)O [[4]]	0.36	0.87	0.55	0.59	–	Calcusyn combination value at 50% effective dose (SkBr3 cells): 0.67
